How the values were obtained:
[1] = target: T1, Acetylcholinesterase (Torpedo californica, UniProt P04058); parameters: species or system Tetronarce californica
Description: (§1) Inhibitory activity against Acetylcholinesterase

[2] = target: Acetylcholinesterase (Electrophorus electricus, UniProt O42275)
Description: as §1

[3] = target: Acetylcholinesterase (Homo sapiens, UniProt P22303)
Description: as §1

[4] = target: T1, Acetylcholinesterase
Description: as §1

Acetylcholinesterase (Electrophorus electricus, UniProt O42275), sequence (O42275 whole entry): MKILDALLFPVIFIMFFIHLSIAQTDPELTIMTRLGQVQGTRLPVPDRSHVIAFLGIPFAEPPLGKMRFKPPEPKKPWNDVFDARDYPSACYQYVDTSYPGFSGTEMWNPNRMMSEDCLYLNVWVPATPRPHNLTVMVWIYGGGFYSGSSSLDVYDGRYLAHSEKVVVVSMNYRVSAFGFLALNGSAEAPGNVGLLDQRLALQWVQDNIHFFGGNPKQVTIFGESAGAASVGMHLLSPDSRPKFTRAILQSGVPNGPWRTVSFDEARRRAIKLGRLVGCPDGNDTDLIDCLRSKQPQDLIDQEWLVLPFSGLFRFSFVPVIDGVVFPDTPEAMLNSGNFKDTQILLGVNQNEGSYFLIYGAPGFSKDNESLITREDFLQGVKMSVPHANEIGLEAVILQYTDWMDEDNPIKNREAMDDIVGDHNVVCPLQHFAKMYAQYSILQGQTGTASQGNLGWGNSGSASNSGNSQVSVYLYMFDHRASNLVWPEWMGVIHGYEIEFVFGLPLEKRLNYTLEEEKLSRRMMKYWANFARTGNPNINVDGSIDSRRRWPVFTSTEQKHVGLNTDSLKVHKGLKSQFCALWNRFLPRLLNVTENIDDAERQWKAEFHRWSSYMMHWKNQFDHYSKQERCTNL
T1 sequence (P04058 whole entry): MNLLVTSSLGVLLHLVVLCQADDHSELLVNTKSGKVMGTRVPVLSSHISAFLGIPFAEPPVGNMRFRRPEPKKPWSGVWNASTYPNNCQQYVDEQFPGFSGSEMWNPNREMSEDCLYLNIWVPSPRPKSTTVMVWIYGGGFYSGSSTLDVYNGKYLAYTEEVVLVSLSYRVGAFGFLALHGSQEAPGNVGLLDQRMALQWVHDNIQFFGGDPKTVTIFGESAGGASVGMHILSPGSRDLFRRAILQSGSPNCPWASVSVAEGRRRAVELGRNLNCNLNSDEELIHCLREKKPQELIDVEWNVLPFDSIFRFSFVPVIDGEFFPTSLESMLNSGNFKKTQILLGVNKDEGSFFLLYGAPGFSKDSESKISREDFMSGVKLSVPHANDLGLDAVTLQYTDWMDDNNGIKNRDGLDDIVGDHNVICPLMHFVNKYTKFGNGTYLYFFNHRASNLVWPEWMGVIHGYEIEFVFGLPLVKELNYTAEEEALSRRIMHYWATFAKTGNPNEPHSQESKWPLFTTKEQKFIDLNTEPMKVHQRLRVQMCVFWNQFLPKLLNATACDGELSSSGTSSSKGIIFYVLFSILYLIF
Acetylcholinesterase (Homo sapiens, UniProt P22303), sequence (P22303 whole entry): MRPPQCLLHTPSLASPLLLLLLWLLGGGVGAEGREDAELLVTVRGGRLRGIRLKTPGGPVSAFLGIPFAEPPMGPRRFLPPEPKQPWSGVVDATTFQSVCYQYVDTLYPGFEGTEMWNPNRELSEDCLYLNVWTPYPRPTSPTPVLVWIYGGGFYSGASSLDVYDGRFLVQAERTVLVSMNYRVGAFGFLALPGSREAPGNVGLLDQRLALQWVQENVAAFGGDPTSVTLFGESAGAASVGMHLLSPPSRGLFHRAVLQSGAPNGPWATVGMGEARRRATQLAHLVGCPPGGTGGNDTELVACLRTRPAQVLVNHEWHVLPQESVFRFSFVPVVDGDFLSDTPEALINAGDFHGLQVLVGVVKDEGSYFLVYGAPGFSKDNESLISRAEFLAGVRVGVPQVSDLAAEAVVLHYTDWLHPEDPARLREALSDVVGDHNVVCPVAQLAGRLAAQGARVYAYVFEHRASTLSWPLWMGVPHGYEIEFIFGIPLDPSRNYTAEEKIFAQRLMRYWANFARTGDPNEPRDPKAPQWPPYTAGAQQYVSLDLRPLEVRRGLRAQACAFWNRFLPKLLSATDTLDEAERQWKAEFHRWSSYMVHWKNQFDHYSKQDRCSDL

Compound	IC50 [1]	IC50 [2]	further results
C[N+]1(C)CCO[C@@](O)(c2ccc(Cl)cc2)C1	8130 µM		
C=CCCCN(C)C	1130 µM		
CC(=O)Nc1ccc([C@@]2(O)C[N+](C)(C)CCO2)cc1	2070 µM		
C=CC[N+](C)(C)C	2920 µM		
C[N+]1(C)CCO[C@@](O)(c2ccc(C#N)cc2)C1	11600 µM		
COc1ccc(C)c([N+](C)(C)C)c1		345 µM	
COc1cccc([N+](C)(C)C)c1C		239 µM	
CC(=O)Oc1cccc([N+](C)(C)C)c1C		40.8 µM	
C[N+](C)(C)c1cccc(O)c1		0.973 µM	
CC(=O)Oc1ccc(C)c([N+](C)(C)C)c1		5.34 µM	
CC(=O)Oc1cc([N+](C)(C)C)ccc1C		0.659 µM	
CN(C(=O)NCc1ccccc1)C(=O)Oc1ccc2c(c1)[C@]1(C)CCN(C)C1N2C (some centres not stated)			IC50 [3]: 6.3 µM
C[N+](C)(C)CCCCI	471 µM		
Cc1ccc([N+](C)(C)C)cc1O		3.11 µM	
C=CCC[N+](C)(C)C	848 µM		
CN1CC[C@@]2(C)c3cc(OC(=O)Nc4ccc(Cl)cc4)ccc3N(C)C12 (some centres not stated)			IC50 [3]: 1.8 µM
CC(C)(C)[C@@]1(O)C[N+](C)(C)CCO1	3710 µM		
CNC(=O)Oc1ccc2c(c1)[C@]1(C)CC[N+](C)(C)C1N2C (some centres not stated)			IC50 [3]: 0.034 µM
CCOCC[N+](C)(C)C	1160 µM		
CCC(=O)Oc1cc([N+](C)(C)C)ccc1C		3.77 µM	
CCN(CC)C(=O)Oc1ccc2c(c1)[C@]1(C)CCN(C)C1N2C (some centres not stated)			IC50 [3]: 40 µM
C[N+](C)(C)CCCl [CHLORMEQUAT CHLORIDE]	2390 µM		
CC(=O)Nc1cccc([N+](C)(C)C)c1	1000 µM		
CCSCC[N+](C)(C)C	1510 µM		
CCCCCC[N+](C)(C)C	816 µM		
C[N+]1(C)CCO[C@H](O)C1	1760 µM		

Compound	IC50 [1]	IC50 [2]	further results
CC(=O)CCC[N+](C)(C)C	84.8 µM		
C[N+](C)(C)CCCBr	87.9 µM		
CCCCNC(=O)Oc1ccc2c(c1)[C@]1(C)CCN(C)C1N2C (some centres not stated)			IC50 [3]: 0.152 µM
COc1cc([N+](C)(C)C)ccc1C		122 µM	
CCCC(=O)SCC[N+](C)(C)C	126 µM		
CCC(=O)Oc1ccc(C)c([N+](C)(C)C)c1		69.1 µM	
CC(=O)Oc1cccc([N+](C)(C)C)c1		3.01 µM	
C[N+](C)(C)c1cccc([N+](=O)[O-])c1			IC50 [4]: 628 µM
Cc1ccc(O)cc1[N+](C)(C)C		2.83 µM	
C[N+]1(C)CCO[C@@](O)(c2ccc([N+](=O)[O-])cc2)C1	5120 µM		
CN1CC[C@@]2(C)c3cc(OC(=O)NCc4ccccc4)ccc3N(C)C12 (some centres not stated)			IC50 [3]: 0.46 µM
C[N+](C)(C)c1cccc(N)c1	192 µM		
Cc1c(O)cccc1[N+](C)(C)C		141 µM	
CN1CC[C@@]2(C)c3cc(OC(=O)Nc4ccccc4)ccc3N(C)C12 (some centres not stated)			IC50 [3]: 0.35 µM
C[C@@]1(O)C[N+](C)(C)CCO1	1730 µM		
CCC(=O)Oc1cccc([N+](C)(C)C)c1C		754 µM	
C[N+](C)(C)CCS	440 µM		
CCCC(=O)OCC[N+](C)(C)C	229 µM		
C[N+](C)(C)CCCCCBr	534 µM		
C[N+](C)(C)CCCCBr	597 µM		
CCC(=O)Oc1cccc([N+](C)(C)C)c1		5.97 µM	
CC(C)NC(=O)Oc1ccc2c(c1)[C@]1(C)CCN(C)C1N2C (some centres not stated)			IC50 [3]: 35 µM
COc1cccc([N+](C)(C)C)c1		597 µM	
C[N+]1(C)CCO[C@@](O)(C(F)(F)F)C1	3830 µM		
C[N+]1(C)CCO[C@@](O)(c2ccc(N)cc2)C1	691 µM		
CN(C)C(=O)Oc1ccc2c(c1)[C@]1(C)CCN(C)C1N2C (some centres not stated)			IC50 [3]: 0.97 µM

From ChEMBL document CHEMBL1129057, “Structure-based alignment and comparative molecular field analysis of acetylcholinesterase inhibitors” (J Med Chem, 1996)
